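Cultured in 96-well plates, cells were exposed to test compound for 48 hours across five concentrations. The concentration for full growth arrest is given as TGI.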
How the values were obtained:
Assay in all cases: NCI tumour cell line growth inhibition, 48 h
EKVX NSCLC = system: EKVX NSCLC
SNB-75 CNS = system: SNB-75 CNS
XF 498 CNS = system: XF 498 CNS
OVCAR-5 ovarian = system: OVCAR-5 ovarian
SNB-19 CNS = system: SNB-19 CNS
CAKI-1 renal = system: CAKI-1 renal
SK-MEL-2 melanoma = system: SK-MEL-2 melanoma
K-562 leukemia = system: K-562 leukemia
A549 NSCLC = system: A549 NSCLC
NCI-H23 lung = system: NCI-H23 lung
HOP-18 NSCLC = system: HOP-18 NSCLC
RXF 393 renal = system: RXF 393 renal
COLO 205 colon = system: COLO 205 colon
SK-OV-3 ovarian = system: SK-OV-3 ovarian
OVCAR-4 ovarian = system: OVCAR-4 ovarian
TK-10 renal = system: TK-10 renal
HOP-62 NSCLC = system: HOP-62 NSCLC
NCI-H522 lung = system: NCI-H522 lung
DLD-1 colon = system: DLD-1 colon
SN12C renal = system: SN12C renal
HL-60(TB) leukemia = system: HL-60(TB) leukemia
M14 melanoma = system: M14 melanoma
HCT-116 colon = system: HCT-116 colon
786-0 renal = system: 786-0 renal
NCI-H226 lung = system: NCI-H226 lung
NCI-H460 lung = system: NCI-H460 lung
DMS 273 small cell lung = system: DMS 273 small cell lung
IGROV1 ovarian = system: IGROV1 ovarian
SK-MEL-28 melanoma = system: SK-MEL-28 melanoma
LXFL 529 NSCLC = system: LXFL 529 NSCLC
UACC-62 melanoma = system: UACC-62 melanoma
SR leukemia = system: SR leukemia
UACC-257 melanoma = system: UACC-257 melanoma
HT29 colon = system: HT29 colon
RXF-631 renal = system: RXF-631 renal
HOP-92 NSCLC = system: HOP-92 NSCLC
OVCAR-3 ovarian = system: OVCAR-3 ovarian
M19-MEL melanoma = system: M19-MEL melanoma
LOX IMVI melanoma = system: LOX IMVI melanoma
MOLT-4 leukemia = system: MOLT-4 leukemia
KM20L2 colon = system: KM20L2 colon
ACHN renal = system: ACHN renal
SK-MEL-5 melanoma = system: SK-MEL-5 melanoma
DMS 114 small cell lung = system: DMS 114 small cell lung
MALME-3M melanoma = system: MALME-3M melanoma
CCRF-CEM leukemia = system: CCRF-CEM leukemia
SF-268 CNS = system: SF-268 CNS
HCT-15 colon = system: HCT-15 colon
SW-620 colon = system: SW-620 colon
U251 CNS = system: U251 CNS
UO-31 renal = system: UO-31 renal
SF-295 CNS = system: SF-295 CNS
SNB-78 CNS = system: SNB-78 CNS
KM12 colon = system: KM12 colon
OVCAR-8 ovarian = system: OVCAR-8 ovarian
SF-539 CNS = system: SF-539 CNS
T-47D breast = system: T-47D breast
BT-549 breast = system: BT-549 breast
MDA-MB-231 breast = system: MDA-MB-231 breast
HS 578T breast = system: HS 578T breast
MDA-MB-435 = system: MDA-MB-435
HCC-2998 colon = system: HCC-2998 colon
MCF7 breast = system: MCF7 breast
A498 renal = system: A498 renal
DU-145 prostate = system: DU-145 prostate
NCI/ADR-RES ovarian = system: NCI/ADR-RES ovarian
RPMI-8226 leukemia = system: RPMI-8226 leukemia
MDA-N = system: MDA-N
PC-3 prostate = system: PC-3 prostate

Compound: CC(C)(C)OC(=O)c1cccnc1/C=N/O
- TGI (EKVX NSCLC): > 100 µM
- TGI (SNB-75 CNS): > 100 µM
- TGI (XF 498 CNS): > 100 µM
- TGI (OVCAR-5 ovarian): > 100 µM
- TGI (SNB-19 CNS): > 100 µM
- TGI (CAKI-1 renal): > 100 µM
- TGI (SK-MEL-2 melanoma): > 100 µM
- TGI (K-562 leukemia): > 100 µM
- TGI (A549 NSCLC): > 100 µM
- TGI (NCI-H23 lung): > 100 µM
- TGI (HOP-18 NSCLC): > 100 µM
- TGI (RXF 393 renal): > 100 µM
- TGI (COLO 205 colon): > 100 µM
- TGI (SK-OV-3 ovarian): > 100 µM
- TGI (OVCAR-4 ovarian): > 100 µM
- TGI (TK-10 renal): > 100 µM
- TGI (HOP-62 NSCLC): > 100 µM
- TGI (NCI-H522 lung): > 100 µM
- TGI (DLD-1 colon): > 100 µM
- TGI (SN12C renal): > 100 µM
- TGI (HL-60(TB) leukemia): > 100 µM
- TGI (M14 melanoma): > 100 µM
- TGI (HCT-116 colon): > 100 µM
- TGI (786-0 renal): > 100 µM
- TGI (NCI-H226 lung): > 100 µM
- TGI (NCI-H460 lung): > 100 µM
- TGI (DMS 273 small cell lung): > 100 µM
- TGI (IGROV1 ovarian): > 100 µM
- TGI (SK-MEL-28 melanoma): > 100 µM
- TGI (LXFL 529 NSCLC): > 100 µM
- TGI (UACC-62 melanoma): > 100 µM
- TGI (SR leukemia): > 100 µM
- TGI (UACC-257 melanoma): > 100 µM
- TGI (HT29 colon): > 100 µM
- TGI (RXF-631 renal): > 100 µM
- TGI (HOP-92 NSCLC): > 100 µM
- TGI (OVCAR-3 ovarian): > 100 µM
- TGI (M19-MEL melanoma): > 100 µM
- TGI (LOX IMVI melanoma): > 100 µM
- TGI (MOLT-4 leukemia): > 100 µM
- TGI (KM20L2 colon): > 100 µM
- TGI (ACHN renal): > 100 µM
- TGI (SK-MEL-5 melanoma): > 100 µM
- TGI (DMS 114 small cell lung): > 100 µM
- TGI (MALME-3M melanoma): > 100 µM
- TGI (CCRF-CEM leukemia): > 100 µM
- TGI (SF-268 CNS): > 100 µM
- TGI (HCT-15 colon): > 100 µM
- TGI (SW-620 colon): > 100 µM
- TGI (U251 CNS): > 100 µM
- TGI (UO-31 renal): > 100 µM
- TGI (SF-295 CNS): > 100 µM
- TGI (SNB-78 CNS): > 100 µM
- TGI (KM12 colon): > 100 µM
- TGI (OVCAR-8 ovarian): > 100 µM
- TGI (SF-539 CNS): > 100 µM

Compound: COc1cccc2c1C(=O)OC2c1cccc2ccccc12 (centres undefined)
- TGI (EKVX NSCLC): > 100 µM
- TGI (SNB-75 CNS): 68.4 µM
- TGI (XF 498 CNS): > 100 µM
- TGI (OVCAR-5 ovarian): > 100 µM
- TGI (SNB-19 CNS): > 100 µM
- TGI (CAKI-1 renal): > 100 µM
- TGI (T-47D breast): > 100 µM
- TGI (BT-549 breast): > 100 µM
- TGI (SK-MEL-2 melanoma): > 100 µM
- TGI (K-562 leukemia): > 100 µM
- TGI (A549 NSCLC): > 100 µM
- TGI (NCI-H23 lung): > 100 µM
- TGI (HOP-18 NSCLC): > 100 µM
- TGI (RXF 393 renal): 98.6 µM
- TGI (COLO 205 colon): > 100 µM
- TGI (SK-OV-3 ovarian): > 100 µM
- TGI (MDA-MB-231 breast): > 100 µM
- TGI (HS 578T breast): > 100 µM
- TGI (MDA-MB-435): > 100 µM
- TGI (OVCAR-4 ovarian): > 88.7 µM
- TGI (HCC-2998 colon): > 100 µM
- TGI (TK-10 renal): > 100 µM
- TGI (MCF7 breast): > 100 µM
- TGI (HOP-62 NSCLC): 62.4 µM
- TGI (NCI-H522 lung): > 100 µM
- TGI (A498 renal): > 100 µM
- TGI (DLD-1 colon): > 100 µM
- TGI (SN12C renal): > 100 µM
- TGI (HL-60(TB) leukemia): > 100 µM
- TGI (M14 melanoma): > 100 µM
- TGI (HCT-116 colon): > 100 µM
- TGI (DU-145 prostate): > 100 µM
- TGI (786-0 renal): > 100 µM
- TGI (NCI/ADR-RES ovarian): > 100 µM
- TGI (RPMI-8226 leukemia): > 100 µM
- TGI (NCI-H226 lung): > 100 µM
- TGI (NCI-H460 lung): > 100 µM
- TGI (DMS 273 small cell lung): > 100 µM
- TGI (IGROV1 ovarian): > 100 µM
- TGI (SK-MEL-28 melanoma): > 100 µM
- TGI (LXFL 529 NSCLC): > 100 µM
- TGI (UACC-62 melanoma): > 100 µM
- TGI (SR leukemia): > 100 µM
- TGI (UACC-257 melanoma): > 100 µM
- TGI (HT29 colon): > 100 µM
- TGI (HOP-92 NSCLC): > 100 µM
- TGI (OVCAR-3 ovarian): > 100 µM
- TGI (M19-MEL melanoma): > 100 µM
- TGI (MDA-N): > 100 µM
- TGI (LOX IMVI melanoma): > 100 µM
- TGI (MOLT-4 leukemia): > 100 µM
- TGI (KM20L2 colon): > 100 µM
- TGI (ACHN renal): > 100 µM
- TGI (SK-MEL-5 melanoma): > 100 µM
- TGI (DMS 114 small cell lung): > 100 µM
- TGI (MALME-3M melanoma): > 100 µM
- TGI (CCRF-CEM leukemia): > 100 µM
- TGI (SF-268 CNS): > 100 µM
- TGI (HCT-15 colon): > 100 µM
- TGI (SW-620 colon): > 100 µM
- TGI (U251 CNS): > 100 µM
- TGI (UO-31 renal): > 100 µM
- TGI (SF-295 CNS): > 100 µM
- TGI (SNB-78 CNS): > 100 µM
- TGI (KM12 colon): > 100 µM
- TGI (OVCAR-8 ovarian): > 100 µM
- TGI (SF-539 CNS): > 100 µM
- TGI (PC-3 prostate): > 100 µM

Reference: PubChem BioAssay (NCI)
